Data reported in ChEMBL document CHEMBL3994587, “An insight on synthetic and medicinal aspects of pyrazolo[1,5-a]pyrimidine scaffold” (Eur J Med Chem, 2017).
In brackets after ≈: the same amount, converted by molar mass.

Columns and labels:
[1] = system: Salmonella typhi; test: Antibacterial activity against Salmonella typhi MTCC 98 assessed as zone of inhibition at 25 to 150 ug/ml measured after 24 hrs by agar well diffusion method; format: functional, Salmonella enterica subsp. enterica serovar Typhi
[2] = system: Aspergillus niger; test: Antifungal activity against Aspergillus niger assessed as zone of inhibition at 25 to 150 ug/ml measured after 24 to 48 hrs by agar well diffusion method; format: functional
[3] = system: Aspergillus flavus; test: Antifungal activity against Aspergillus flavus MTCC 3008 assessed as zone of inhibition at 25 to 150 ug/ml measured after 24 to 48 hrs by agar well diffusion method; format: functional
[4] = system: Penicillium chrysogenum; test: Antifungal activity against Penicillium chrysogenum MTCC 160 assessed as zone of inhibition at 25 to 150 ug/ml measured after 24 to 48 hrs by agar well diffusion method; format: functional
[5] = system: Candida albicans; test: Antifungal activity against Candida albicans MTCC 227 assessed as zone of inhibition at 25 to 150 ug/ml measured after 24 to 48 hrs by agar well diffusion method; format: functional
[6] = system: Staphylococcus aureus; test: Antibacterial activity against Staphylococcus aureus MTCC 96 assessed as zone of inhibition at 25 to 150 ug/ml measured after 24 hrs by agar well diffusion method; format: functional
[7] = system: Escherichia coli; test: Antibacterial activity against Escherichia coli MTCC 443 assessed as zone of inhibition at 25 to 150 ug/ml measured after 24 hrs by agar well diffusion method; format: functional
[8] = system: Bacillus subtilis; test: Antibacterial activity against Bacillus subtilis MTCC 441 assessed as zone of inhibition at 25 to 150 ug/ml measured after 24 hrs by agar well diffusion method; format: functional
[9] = system: Trichophyton mentagrophytes; test: Anti-fungal activity against Trichophyton mentagrophytes measured after 48 hrs by broth dilution method; format: functional
[10] = system: Pseudomonas aeruginosa; test: Antibacterial activity against Pseudomonas aeruginosa RCMB 000103 assessed as zone of inhibition at 30 ug/ml; format: functional; conditions: read-out: IZ
[11] = system: Staphylococcus aureus; test: Antibacterial activity against Staphylococcus aureus RCMB 000108 assessed as zone of inhibition at 30 ug/ml; format: functional; conditions: read-out: IZ
[12] = system: Escherichia coli; test: Antibacterial activity against Escherichia coli RCMB 000106 assessed as zone of inhibition at 30 ug/ml; format: functional; conditions: read-out: IZ
[13] = system: Bacillus subtilis; test: Antibacterial activity against Bacillus subtilis RCMB 000109 assessed as zone of inhibition at 30 ug/ml; format: functional; conditions: read-out: IZ
[14] = system: Tritrichomonas foetus; test: Anti-parasitic activity against Tritrichomonas foetus measured after 48 hrs by microscopic analysis; format: functional; conditions: for MIC: Tritrichomonas foetus, 48 h
[15] = system: Staphylococcus aureus; test: Antibacterial activity against Staphylococcus aureus measured after 18 hrs by agar dilution method; format: functional
[16] = system: Pseudomonas aeruginosa; test: Antibacterial activity against Pseudomonas aeruginosa measured after 18 hrs by agar dilution method; format: functional
[17] = system: Candida albicans; test: Antifungal activity against Candida albicans measured after 18 hrs by agar dilution method; format: functional
[18] = system: Bacillus subtilis; test: Antibacterial activity against Bacillus subtilis measured after 18 hrs by agar dilution method; format: functional
[19] = system: Escherichia coli; test: Antibacterial activity against Escherichia coli measured after 18 hrs by agar dilution method; format: functional
[20] = system: Candida albicans; test: Antifungal activity against Candida albicans RCMB 0005003 assessed as zone of inhibition at 30 ug/ml; format: functional; conditions: read-out: IZ
[21] = system: Syncephalastrum racemosum; test: Antifungal activity against Syncephalastrum racemosum 005004 assessed as zone of inhibition at 30 ug/ml; format: functional; conditions: read-out: IZ
[22] = system: Geotrichum candidum; test: Antifungal activity against Geotrichum candidum 052008 assessed as zone of inhibition at 30 ug/ml; format: functional; conditions: read-out: IZ
[23] = system: Aspergillus fumigatus; test: Antifungal activity against Aspergillus fumigatus RCMB 002006 assessed as zone of inhibition at 30 ug/ml; format: functional; conditions: read-out: IZ
[24] = system: Serratia marcescens; test: Antibacterial activity against Serratia marcescens IMRU 70 assessed as zone of inhibition at 1 mg/ml measured after 24 hrs by agar diffusion method; format: functional; conditions: IMRU 70, 24 h, read-out: IZ
[25] = system: Staphylococcus aureus; test: Antibacterial activity against Staphylococcus aureus NCTC 7447 assessed as zone of inhibition at 1 mg/ml measured after 24 hrs by agar diffusion method; format: functional; conditions: NCTC 7447, 24 h, read-out: IZ
[26] = system: Escherichia coli; test: Antibacterial activity against Escherichia coli NCTC 10416 assessed as zone of inhibition at 1 mg/ml measured after 24 hrs by agar diffusion method; format: functional; conditions: NCTC 10416, 24 h, read-out: IZ
[27] = system: Bacillus subtilis; test: Antibacterial activity against Bacillus subtilis NCTC 10400 assessed as zone of inhibition at 1 mg/ml measured after 24 hrs by agar diffusion method; format: functional; conditions: NCTC 10400, 24 h, read-out: IZ
[28] = system: Sarcina; test: Antibacterial activity against Sarcina sp. NCTC 1117 assessed as zone of inhibition at 1 mg/ml measured after 24 hrs by agar diffusion method; format: functional; conditions: NCTC 1117, 24 h, read-out: IZ
[29] = target: T1, Translocator protein (Rattus norvegicus, UniProt P16257); test: Displacement of [3H]Ro5-4864 from PBZR in rat kidney mitochondrial membranes measured after 90 mins by liquid scintillation counting; format: cell membranes
[30] = target: T1, Translocator protein; test: Displacement of [3H]PK11195 from PBZR in rat kidney mitochondrial membranes measured after 90 mins by liquid scintillation counting; format: cell membranes

T1 sequence (P16257 whole entry, looked up): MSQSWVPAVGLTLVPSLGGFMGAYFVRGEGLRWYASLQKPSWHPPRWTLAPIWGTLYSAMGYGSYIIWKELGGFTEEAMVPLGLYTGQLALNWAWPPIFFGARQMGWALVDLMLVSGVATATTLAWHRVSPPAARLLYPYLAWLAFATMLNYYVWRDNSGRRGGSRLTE

Cc1ccc(-c2cc(-c3c(C)nn(-c4ccccc4)c3Cl)n3nc(N)c(/N=N/c4ccc(Cl)cc4)c3n2)c(O)c1Br
inhibition zone (IZ) [1]: 30 mm | inhibition zone (IZ) [2]: 14 mm | inhibition zone (IZ) [3]: 17 mm | inhibition zone (IZ) [4]: 16 mm | inhibition zone (IZ) [5]: 15 mm | inhibition zone (IZ) [6]: 10 mm | inhibition zone (IZ) [7]: 19 mm

Cc1nn(-c2ccccc2)c(Cl)c1-c1cc(-c2cc(Cl)cc(I)c2O)nc2c(/N=N/c3ccc(Cl)cc3)c(N)nn12
inhibition zone (IZ) [8]: 15 mm | inhibition zone (IZ) [1]: 16 mm | inhibition zone (IZ) [2]: 26 mm | inhibition zone (IZ) [3]: 21 mm | inhibition zone (IZ) [4]: 17 mm | inhibition zone (IZ) [5]: 19 mm | inhibition zone (IZ) [6]: 18 mm | inhibition zone (IZ) [7]: 17 mm

CCCCCCCCNc1cc(C)nc2ccnn12
MLC [9]: 160 µM (≈ 41.7 µg/mL) | MIC ([9]; Trichophyton mentagrophytes, 48 h): 20 µM (≈ 5.21 µg/mL)

CN[C@@H]1[C@H](O[C@H]2[C@H](O[C@H]3[C@H](O)[C@@H](O)[C@H](N=C(N)N)[C@@H](O)[C@@H]3N=C(N)N)O[C@@H](C)[C@]2(O)C=O)O[C@@H](CO)[C@H](O)[C@H]1O [STREPTOMYCIN]
zone of inhibition at 30 µg/mL [10]: 25.2 mm | zone of inhibition at 30 µg/mL [11]: 28.1 mm | zone of inhibition at 30 µg/mL [12]: 29.7 mm | zone of inhibition at 30 µg/mL [13]: 29.7 mm

Cc1ncc([N+](=O)[O-])n1CCO [METRONIDAZOLE]
MLC [14]: 10 mg/L (≈ 58.4 µM) | MIC [14]: 3.2 mg/L (≈ 18.7 µM)

Cc1nn(-c2ccccc2)c(Cl)c1-c1cc(-c2cc(Cl)cc(Cl)c2O)nc2c(/N=N/c3ccc(Cl)cc3)c(N)nn12
inhibition zone (IZ) [8]: 16 mm | inhibition zone (IZ) [1]: 24 mm | inhibition zone (IZ) [2]: 18 mm | inhibition zone (IZ) [3]: 21 mm | inhibition zone (IZ) [4]: 24 mm | inhibition zone (IZ) [5]: 17 mm | inhibition zone (IZ) [7]: 26 mm

Cc1nc(-c2ccccc2)sc1-c1ccn2ncc(-c3ccccc3)c2n1
MIC [15]: ≥ 800 mg/L | MIC [16]: ≥ 400 mg/L | MIC [17]: ≥ 400 mg/L | MIC [18]: ≥ 400 mg/L | MIC [19]: ≥ 800 mg/L

CCC(C)n1ncn(-c2ccc(N3CCN(c4ccc(OCC5COC(Cn6cncn6)(c6ccc(Cl)cc6Cl)O5)cc4)CC3)cc2)c1=O (stereo not given) [ITRACONAZOLE]
zone of inhibition at 30 µg/mL [20]: 25.2 mm | zone of inhibition at 30 µg/mL [21]: 23.9 mm | zone of inhibition at 30 µg/mL [22]: 24.2 mm | zone of inhibition at 30 µg/mL [23]: 27.4 mm

Nc1nn2c(-c3ccco3)cc(-c3ccco3)nc2c1/N=N/c1ccccc1
zone of inhibition at 30 µg/mL [21]: 10.2 mm | zone of inhibition at 30 µg/mL [22]: 15.3 mm | zone of inhibition at 30 µg/mL [23]: 14.2 mm | zone of inhibition at 30 µg/mL [11]: 16.7 mm | zone of inhibition at 30 µg/mL [12]: 15.2 mm | zone of inhibition at 30 µg/mL [13]: 15.7 mm

COc1ccccc1NS(=O)(=O)c1ccc(/N=N/c2c(=O)[nH]n3cc(C#N)c(N)nc23)cc1
zone of inhibition at 1000 µg/mL [24]: 12 to 14 mm | zone of inhibition at 1000 µg/mL [25]: 9 to 11 mm | zone of inhibition at 1000 µg/mL [26]: 12 to 14 mm | zone of inhibition at 1000 µg/mL [27]: 15 to 18 mm | zone of inhibition at 1000 µg/mL [28]: 12 to 14 mm

CCC(CC)C(=O)Cc1c(-c2ccc(C)cc2)nn2c(C)cc(C)nc12
Ki [29]: 1.7 nM | Ki [30]: 0.8 nM

CCOC(=O)c1cn(CC)c2c([N+](=O)[O-])cnn2c1=O
MLC [14]: 3.2 mg/L (≈ 11.4 µM) | MIC [14]: 1 mg/L (≈ 3.57 µM)

Cc1nc(-c2ccccc2)sc1-c1ccn2nc(C)c(-c3ccccc3)c2n1
MIC [15]: ≥ 800 mg/L | MIC [16]: ≥ 800 mg/L | MIC [17]: ≥ 400 mg/L | MIC [18]: ≥ 400 mg/L | MIC [19]: ≥ 400 mg/L

CC1(C)S[C@@H]2[C@H](NC(=O)Cc3ccccc3)C(=O)N2[C@H]1C(=O)O [PENICILLIN G]
zone of inhibition at 30 µg/mL [10]: 28.3 mm | zone of inhibition at 30 µg/mL [11]: 30.1 mm | zone of inhibition at 30 µg/mL [12]: 33.1 mm | zone of inhibition at 30 µg/mL [13]: 31.6 mm

Cc1nn(-c2ccccc2)c(Cl)c1-c1cc(-c2cc(Cl)ccc2O)nc2c(/N=N/c3ccc(Cl)cc3)c(N)nn12
inhibition zone (IZ) [8]: 12 mm | inhibition zone (IZ) [1]: 15 mm | inhibition zone (IZ) [2]: 20 mm | inhibition zone (IZ) [4]: 13 mm | inhibition zone (IZ) [5]: 11 mm | inhibition zone (IZ) [6]: 15 mm | inhibition zone (IZ) [7]: 18 mm
